Among the data in PubChem BioAssay (NCI) are GI50 and TGI values, retold here.

Values joined by “and” are separate entries in the source; they are usually repeats but may differ in a detail not shown here. Equal entries are not always repeated.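 Grown in 96-well plates, cells were treated for 48 hours with each compound at five concentrations. Insufficient inhibition: endpoint recorded as highest concentration tested. GI50 is the concentration that inhibits growth by half. TGI denotes the concentration required for complete inhibition of growth.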 Where only a bound is given, the exact number is not on record here.

Among the test systems are A498 renal; CAKI-1 renal; BT-549 breast; SF-539 CNS; SN12C renal; TK-10 renal; SW-620 colon; OVCAR-5 ovarian; A549 NSCLC; HL-60(TB) leukemia.
What all share (experiment): growth of human tumour cells (NCI), 48 h

`COC(=O)[C@@]12OC[C@]34[C@H]([C@@H](O)[C@@H]1O)[C@@]1(C)[C@H](O)C(=O)C=C(C)[C@@H]1C[C@H]3OC(=O)C(OC(C)=O)[C@@H]24` (stereo partly drawn): the GI50 is 14.6 nM with A498 renal; 0.107 µM in the assay on CAKI-1 renal; 18.2 nM with BT-549 breast; 21.8 nM with SF-539 CNS; 46 nM in the assay with SN12C renal; 0.0374 µM with TK-10 renal. Besides, the GI50 was 24.2 nM in the assay on SW-620 colon, 69 nM in the assay with OVCAR-5 ovarian, 0.0381 µM with A549 NSCLC and 11.9 nM with HL-60(TB) leukemia. Further, the TGI in the assay with A498 renal turned out to be 0.0413 µM; with CAKI-1 renal, 0.394 µM; in the assay on BT-549 breast, 0.0561 µM; with SF-539 CNS, 0.0612 µM; in the assay on SN12C renal, 0.307 µM; in the assay with TK-10 renal it was 0.197 µM. Moreover, the TGI in the assay on SW-620 colon is 0.128 µM; in the assay on OVCAR-5 ovarian, 0.41 µM; in the assay on A549 NSCLC, 0.294 µM; with HL-60(TB) leukemia, 0.0315 µM.

`COc1cccc(C2=C(c3c(C)n(C)c4ccccc34)C(=O)NC2=O)c1`: the GI50 is 8990 nM in the assay on A498 renal; more than 25 µM with CAKI-1 renal; more than 21700 nM with BT-549 breast; more than 25000 nM in the assay on SF-539 CNS; more than 25000 nM in the assay on SN12C renal; 24.2 µM with TK-10 renal. Moreover, the GI50 is 12400 nM with SW-620 colon, more than 25000 nM in the assay on OVCAR-5 ovarian, 16.4 µM in the assay on A549 NSCLC and more than 17100 nM with HL-60(TB) leukemia. Further, the TGI in the assay with A498 renal, in the assay with CAKI-1 renal, with BT-549 breast, with SF-539 CNS, in the assay with SN12C renal and with TK-10 renal was more than 25 µM throughout. Moreover, the TGI in the assay with SW-620 colon, with OVCAR-5 ovarian, in the assay with A549 NSCLC and in the assay with HL-60(TB) leukemia was more than 25 µM each time.

As to `C[C@]12CCc3sc(NCCc4ccccc4)nc3C1=CC[C@@H]1[C@@H]2CC[C@]2(C)C(=O)CC[C@@H]12`, the GI50 is 4430 nM with A498 renal; 3.13 µM in the assay with CAKI-1 renal; 2420 nM in the assay with BT-549 breast; 1690 nM with SF-539 CNS; 2890 nM in the assay on SN12C renal; 4.15 µM in the assay with TK-10 renal. The GI50 was 2300 nM with SW-620 colon, 4440 nM in the assay on OVCAR-5 ovarian, 7 µM in the assay on A549 NSCLC and 2930 nM in the assay with HL-60(TB) leukemia. Moreover, the TGI in the assay with A498 renal was more than 100 µM; in the assay with CAKI-1 renal, 11.1 µM; in the assay on BT-549 breast it was more than 100 µM; in the assay on SF-539 CNS, 3.62 µM; in the assay with SN12C renal it was more than 100 µM; in the assay on TK-10 renal, more than 100 µM. Moreover, the TGI in the assay with SW-620 colon was 5.28 µM; in the assay on OVCAR-5 ovarian, 65.9 µM; in the assay on A549 NSCLC, more than 100 µM; with HL-60(TB) leukemia it was 9.1 µM.

Turning to `COc1ccc(C2CC(C)(O)Oc3cc4c(cc32)OCO4)cc1` (stereo not drawn), the TGI in the assay with A498 renal is more than 91.6 µM; in the assay with CAKI-1 renal, more than 100 µM; in the assay on BT-549 breast, more than 88 µM; in the assay with SF-539 CNS it was more than 100 µM; in the assay with SN12C renal, more than 100 µM; with TK-10 renal, more than 100 µM. For the same molecule, the TGI in the assay on SW-620 colon was more than 100 µM; with OVCAR-5 ovarian, more than 100 µM; in the assay on A549 NSCLC, more than 100 µM; in the assay with HL-60(TB) leukemia, 68.4 µM.

For the molecule `CC1OC(OC2C[C@](O)(C(=O)CF)Cc3c(O)c4c(c(O)c32)C(=O)c2ccccc2C4=O)CC(N)C1O` (stereo partly drawn), the TGI came out at 1.28 µM in the assay on A498 renal; 0.0763 µM in the assay on CAKI-1 renal; 0.918 µM in the assay on BT-549 breast; 1.33 µM in the assay on SF-539 CNS; 0.338 µM in the assay on SN12C renal; 0.497 µM with TK-10 renal. The TGI was 0.741 µM with SW-620 colon, 0.541 µM with OVCAR-5 ovarian, 0.173 µM in the assay with A549 NSCLC and less than 0.0291 µM in the assay with HL-60(TB) leukemia.

As for `CCC1CN2C(=N1)c1ccccc1-c1cc(Cl)ccc12` (stereo not drawn), the GI50 in the assay with A498 renal is 3010 nM; in the assay on CAKI-1 renal, 4.32 µM; in the assay with BT-549 breast, 13200 nM; in the assay with SF-539 CNS, 3880 nM; in the assay on SN12C renal it was 2970 nM; in the assay on TK-10 renal it was 4.79 µM. For the same molecule, the GI50 was 2720 nM with SW-620 colon, 4480 nM in the assay with OVCAR-5 ovarian, 2.24 µM with A549 NSCLC and 1850 nM in the assay with HL-60(TB) leukemia. Further, the TGI was determined as 12.1 µM with A498 renal; 46.7 µM in the assay with CAKI-1 renal; 50.3 µM in the assay with BT-549 breast; 14.8 µM in the assay on SF-539 CNS; 17.4 µM with SN12C renal; 32.8 µM in the assay on TK-10 renal. Besides, the TGI with SW-620 colon is 15.5 µM; in the assay on OVCAR-5 ovarian, 29.6 µM; in the assay on A549 NSCLC, 15.6 µM; with HL-60(TB) leukemia, 9.34 µM.

Turning to `Cc1cc(Cl)ccc1Nc1nc(C(F)(F)F)ccc1C(=O)N/N=C/c1ccc(Cl)cc1`, the GI50 in the assay on A498 renal is 1910 nM; in the assay on CAKI-1 renal, 1.25 µM; with BT-549 breast it was 1340 nM; in the assay with SF-539 CNS it was 1700 nM; in the assay on SN12C renal, 2220 nM; in the assay on TK-10 renal, 1.66 µM. Further, the GI50 is 2150 nM in the assay on SW-620 colon, 2070 nM with OVCAR-5 ovarian, 3.02 µM in the assay on A549 NSCLC and 2100 nM with HL-60(TB) leukemia. The TGI in the assay with A498 renal was 6.13 µM; in the assay on CAKI-1 renal, 3.85 µM; with BT-549 breast, 4.71 µM; with SF-539 CNS, 3.96 µM; in the assay on SN12C renal, 9 µM; with TK-10 renal, 7.01 µM. The TGI in the assay on SW-620 colon came out at 11 µM; in the assay on OVCAR-5 ovarian it was 6.64 µM; in the assay on A549 NSCLC it was 27.9 µM; in the assay on HL-60(TB) leukemia it was 4.63 µM.

With `C#CC1(O)C(COP(=O)(O)OC(COCCCCCCCCCCCCCCCCCC)COP(=O)(O)OCC2OC(n3cc(F)c(=O)[nH]c3=O)CC2O)OC(n2ccc(N)nc2=O)C1O` (stereo not drawn), the GI50 in the assay on A498 renal was 389 nM and 189 nM; with OVCAR-5 ovarian, 1040 nM and 2990 nM; in the assay with HL-60(TB) leukemia it was 95.2 nM and 210 nM. In addition, the TGI with A498 renal was 14 µM and 5.12 µM; in the assay with CAKI-1 renal it was 6.72 µM; in the assay with BT-549 breast, > 42.8 µM and 8.71 µM; in the assay with SF-539 CNS it was 12.2 µM and 22.3 µM; with SN12C renal it was more than 65.1 µM; with TK-10 renal, 9.09 µM and 3.83 µM. In addition, the TGI is > 100 µM and 48.1 µM in the assay with SW-620 colon; > 46.2 µM and 68.6 µM in the assay on OVCAR-5 ovarian; > 38.3 µM and 22.6 µM in the assay on A549 NSCLC; 17.9 µM and 11.7 µM with HL-60(TB) leukemia.

Consider `CN(C)CCNC(=O)c1cc([N+](=O)[O-])cc2c1Oc1ccccc1O2`, for which the TGI in the assay on A498 renal, in the assay with CAKI-1 renal, with BT-549 breast, in the assay on SF-539 CNS, in the assay on SN12C renal and in the assay with TK-10 renal was more than 100 µM throughout. Further, the TGI in the assay with SW-620 colon, in the assay with OVCAR-5 ovarian, in the assay with A549 NSCLC and in the assay on HL-60(TB) leukemia was more than 100 µM throughout.
